Test results as given in the supplement of paper PMC10307832.

What follows are cell lines tested with CC[C@@H]1C(=O)N(C)c2cnc(Nc3ccc(C(=O)NC4CCN(C)CC4)cc3OC)nc2N1C1CCCC1 [BI-2536] + CC(=O)c1c(C)c2cnc(Nc3ccc(N4CCNCC4)cn3)nc2n(C2CCCC2)c1=O [Palbociclib] (partner 0.5 µM) (assay: relative viability (nuclei count vs DMSO), 5 days (fraction); higher = more cells survive). Conditions: first compound 0.01 µM.
Method in brief: (§1)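 Nuclei were stained with Hoechst during a one-step fixation (final 0.05% Triton X-100, 1% formaldehyde, 1 ug/ml Hoechst) carried out 5 days after dosing, then counted on 4× images. The cells, lung cancer lines in 1536-well plates, had been dosed by pin tool the day after seeding with one drug alone or a fixed anchor-drug dose plus five library-drug doses (not always all listed) in √10 steps. Relative viability is the nuclei count in treated wells divided by that in vehicle wells, and each value is the median of duplicate plates.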
With EKVX the relative viability was 0.416.
For LC-2-ad, the relative viability was 0.526.
NCI-H1944 was tested, and the relative viability was 0.304.
In the case of NCI-H1975, the relative viability is reported as 0.349.
In the case of RERF-LC-KJ, the relative viability is reported as 1.09.
ABC-1 was tested, and the relative viability was 0.561.
NCI-H358 gave a relative viability of 0.132.
Work on NCI-H650 yielded a relative viability of 0.315.
In the case of PC-3 [JPC-3], the relative viability is reported as 0.54.

Same assay, conditions: first compound 0.03162 µM
For EKVX, the relative viability was 0.404.
LC-2-ad was tested, and the relative viability was 0.379.
NCI-H1944 gave a relative viability of 0.329.
In the case of NCI-H1975, the relative viability is reported as 0.648.
For RERF-LC-KJ, the relative viability was 0.949.
ABC-1 showed a relative viability of 0.629.
For NCI-H358, the relative viability was 0.133.
With NCI-H650 the relative viability was 0.274.
Work on PC-3 [JPC-3] yielded a relative viability of 0.828.

Same assay, conditions: first compound 0.1 µM
EKVX showed a relative viability of 0.37.
LC-2-ad gave a relative viability of 0.361.
With NCI-H1944 the relative viability was 0.308.
NCI-H1975 gave a relative viability of 0.461.
Cell Line RERF-LC-KJ has a relative viability of 0.491.
With ABC-1 the relative viability was 0.374.
In the case of NCI-H358, the relative viability is reported as 0.104.
NCI-H650 gave a relative viability of 0.294.
With PC-3 [JPC-3] the relative viability was 0.5.

Same assay, conditions: first compound 0.3162 µM
Cell Line EKVX has a relative viability of 0.182.
LC-2-ad gave a relative viability of 0.234.
For NCI-H1944, the relative viability was 0.173.
NCI-H1975 gave a relative viability of 0.14.
For RERF-LC-KJ, the relative viability was 0.266.
Work on ABC-1 yielded a relative viability of 0.358.
In the case of NCI-H358, the relative viability is reported as 0.0605.
Cell Line NCI-H650 has a relative viability of 0.187.
For PC-3 [JPC-3], the relative viability was 0.416.

Same assay, conditions: first compound 1 µM
EKVX gave a relative viability of 0.173.
With LC-2-ad the relative viability was 0.248.
Cell Line NCI-H1944 has a relative viability of 0.15.
NCI-H1975 was tested, and the relative viability was 0.158.
RERF-LC-KJ showed a relative viability of 0.241.
In the case of ABC-1, the relative viability is reported as 0.423.
Work on NCI-H358 yielded a relative viability of 0.0928.
NCI-H650 gave a relative viability of 0.138.
Cell Line PC-3 [JPC-3] has a relative viability of 0.424.

The cell lines below were run with CC[C@@H]1C(=O)N(C)c2cnc(Nc3ccc(C(=O)NC4CCN(C)CC4)cc3OC)nc2N1C1CCCC1 [BI-2536] + O=C(c1cc(Cc2n[nH]c(=O)c3ccccc23)ccc1F)N1CCN(C(=O)C2CC2)CC1 [Olaparib] (partner 8 µM) in the same assay as above. Conditions: first compound 0.01 µM.
Method in brief: as §1
Work on EKVX yielded a relative viability of 0.856.
Cell Line LC-2-ad has a relative viability of 0.705.
NCI-H1944 was tested, and the relative viability was 0.385.
For NCI-H1975, the relative viability was 0.776.
RERF-LC-KJ showed a relative viability of 0.901.
ABC-1 was tested, and the relative viability was 0.657.
In the case of NCI-H358, the relative viability is reported as 0.559.
In the case of NCI-H650, the relative viability is reported as 0.407.
PC-3 [JPC-3] was tested, and the relative viability was 1.22.

Same assay, conditions: first compound 0.03162 µM
For EKVX, the relative viability was 0.827.
LC-2-ad showed a relative viability of 0.621.
NCI-H1944 gave a relative viability of 0.389.
Work on NCI-H1975 yielded a relative viability of 0.71.
With RERF-LC-KJ the relative viability was 0.571.
ABC-1 showed a relative viability of 0.876.
NCI-H358 showed a relative viability of 0.247.
NCI-H650 showed a relative viability of 0.28.
With PC-3 [JPC-3] the relative viability was 0.896.

Same assay, conditions: first compound 0.1 µM
EKVX gave a relative viability of 0.582.
For LC-2-ad, the relative viability was 0.24.
With NCI-H1944 the relative viability was 0.297.
In the case of NCI-H1975, the relative viability is reported as 0.544.
RERF-LC-KJ gave a relative viability of 0.24.
ABC-1 was tested, and the relative viability was 0.423.
For NCI-H358, the relative viability was 0.0974.
Work on NCI-H650 yielded a relative viability of 0.237.
PC-3 [JPC-3] gave a relative viability of 0.582.

Same assay, conditions: first compound 0.3162 µM
For EKVX, the relative viability was 0.211.
LC-2-ad gave a relative viability of 0.205.
In the case of NCI-H1944, the relative viability is reported as 0.164.
NCI-H1975 gave a relative viability of 0.161.
Work on RERF-LC-KJ yielded a relative viability of 0.201.
ABC-1 showed a relative viability of 0.406.
NCI-H358 was tested, and the relative viability was 0.0882.
In the case of NCI-H650, the relative viability is reported as 0.146.
In the case of PC-3 [JPC-3], the relative viability is reported as 0.327.

Same assay, conditions: first compound 1 µM
EKVX was tested, and the relative viability was 0.177.
Work on LC-2-ad yielded a relative viability of 0.205.
With NCI-H1944 the relative viability was 0.147.
NCI-H1975 showed a relative viability of 0.169.
With RERF-LC-KJ the relative viability was 0.223.
Work on ABC-1 yielded a relative viability of 0.299.
For NCI-H358, the relative viability was 0.0802.
NCI-H650 was tested, and the relative viability was 0.105.
PC-3 [JPC-3] gave a relative viability of 0.369.
